Results as given in US11198713B2, “Agents modulating beta-catenin functions and methods thereof” (FOG PHARMACEUTICALS, INC., priority 2017, dated 2021).

molecular target: T1, full-length beta-catenin (Axin site) (Homo sapiens, UniProt P35222); test: Competition fluorescence polarization assay (Axin site probe); type: binding; settings: competition fluorescence polarization, Table 2; read-out: in vitro FP EC50
T1 construct: 15 nM full-length beta-catenin, 20 nM FITC labeled peptide in buffer
T1 sequence (P35222 1-781): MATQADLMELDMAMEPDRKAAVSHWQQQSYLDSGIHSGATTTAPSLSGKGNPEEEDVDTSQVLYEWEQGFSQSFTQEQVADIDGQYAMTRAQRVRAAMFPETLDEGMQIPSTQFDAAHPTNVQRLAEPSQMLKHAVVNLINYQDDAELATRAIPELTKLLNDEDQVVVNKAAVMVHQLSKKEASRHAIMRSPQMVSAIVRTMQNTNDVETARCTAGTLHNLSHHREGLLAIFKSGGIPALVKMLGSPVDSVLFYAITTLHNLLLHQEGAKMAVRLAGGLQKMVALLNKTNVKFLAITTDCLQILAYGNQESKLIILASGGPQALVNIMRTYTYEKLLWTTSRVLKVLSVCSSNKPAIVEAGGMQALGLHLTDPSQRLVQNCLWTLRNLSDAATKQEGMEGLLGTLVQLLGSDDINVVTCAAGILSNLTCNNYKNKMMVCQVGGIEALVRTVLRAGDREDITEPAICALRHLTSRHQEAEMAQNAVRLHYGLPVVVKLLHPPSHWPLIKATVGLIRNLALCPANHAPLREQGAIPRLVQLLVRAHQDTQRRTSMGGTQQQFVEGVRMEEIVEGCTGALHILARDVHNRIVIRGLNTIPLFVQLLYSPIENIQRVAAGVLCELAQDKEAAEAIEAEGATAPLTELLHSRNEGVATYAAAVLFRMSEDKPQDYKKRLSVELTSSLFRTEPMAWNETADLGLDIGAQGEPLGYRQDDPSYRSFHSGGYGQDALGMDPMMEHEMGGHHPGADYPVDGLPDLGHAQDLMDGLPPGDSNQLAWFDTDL
Description: FIG. 1. […] Peptide solutions were prepared in buffer (50 mM Tris pH 8.0, 250 mM NaCl, 2% glycerol, 0.5 mM EDTA, 0.02% w/v sodium azide) using a 3-fold serial dilution from 5 μM. Probe solution (15 nM full-length 13-Catenin, 20 nM FITC labeled peptide (FITC-PEG1-PQ-S5-ILD-S5-HVRRVWR (SEQ ID NO: 1) (hydrocarbon staple formed by two S5 via olefin metathesis)) in buffer) was prepared and incubated for 5 minutes, then 40 μL per well plated in a black polystyrene 384-well plate (Corning). Equal volume of the titrated peptide was added to the plate and incubated protected from light for 15 minutes prior to read. Reads were performed on a Spectramax M5 (Molecular Devices) in duplicate.
FIG. 7. […] BCL9 Competition FP assay: Peptide solutions were prepared in buffer (50 mM Tris pH 8.0, 250 mM NaCl, 2% glycerol, 0.5 mM EDTA, 0.02% w/v sodium azide) using a 3-fold serial dilution from 10 μM. Probe solution (250 nM full-length beta-catenin, 20 nM 5FAM labeled peptide in buffer) was prepared and 40 μL per well plated in a black polystyrene 384-well plate (Corning). Equal volume of the titrated peptide was added to the plate and incubated protected from light for 15 minutes prior to read. Reads were performed on a Spectramax M5 (Molecular Devices) in duplicate. Probe: Ac-[…]nLeu-Leu-2NapA-bala-bala-Lys5FAM-NH2 (SEQ ID NO: 2) (from Biochemistry, 2009, 48 (40), pp 9534-9541). Axin Competition FP assay: Peptide solutions were prepared in buffer (50 mM Tris pH 8.0, 250 mM NaCl, 2% glycerol, 0.5 mM EDTA, 0.02% w/v sodium azide) using a 3-fold serial dilution from 5 μM. Probe solution (15 nM full-length beta-catenin, 20 nM FITC labeled peptide in buffer) was prepared and incubated for 5 minutes, then 40 μL per well plated in a black polystyrene 384-well plate (Corning). Equal volume of the titrated peptide was added to the plate and incubated protected from light for 15 minutes prior to read. Reads were performed on a Spectramax M5 (Molecular Devices) in duplicate. Probe: FITC-StAx-33 from Grossmann et al. PNAS 109 17942-17947.

`CC[C@H](C)[C@@H]1NC(=O)[C@H](Cc2ccccn2)NC(=O)[C@H](C)NC(=O)[C@H](CC(=O)O)NC(=O)[C@H](CC(C)C)NC(=O)[C@H]([C@@H](C)CC)NC(=O)[C@](C)(NC(=O)[C@H](C)NC(C)=O)CCCCCCC=CCOC(=O)N2CC[C@@](C(=O)N[C@H](C(=O)N[C@H](C(=O)N[C@@H](Cc3c[nH]c4ccccc34)C(N)=O)C(C)C)C(C)(C)C)(C2)NC1=O` (single isomer, unassigned) [FP0568c Isomer 1, Ac-A-R8-I-L-D-A-2pyr-I-MB-tLeu-V-W-NH2] and `CC[C@H](C)[C@@H]1NC(=O)[C@H](Cc2ccccn2)NC(=O)[C@H](C)NC(=O)[C@H](CC(=O)O)NC(=O)[C@H](CC(C)C)NC(=O)[C@H]([C@@H](C)CC)NC(=O)[C@](C)(NC(=O)[C@H](C)NC(C)=O)CCCCCCC=CCOC(=O)N2CC[C@@](C(=O)N[C@@H](Cc3cccs3)C(=O)N[C@H](C(=O)N[C@@H](Cc3c[nH]c4ccccc34)C(N)=O)C(C)C)(C2)NC1=O` (single isomer, unassigned) [FP0571c Isomer 1, Ac-A-R8-I-L-D-A-2pyr-I-MB-thi-V-W-NH2] cannot be ordered by EC50: > 5000 nM for the first, > 5000 nM for the second.

`CC[C@H](C)[C@@H]1NC(=O)[C@H](Cc2ccccn2)NC(=O)[C@H](C)NC(=O)[C@H](CC(=O)O)NC(=O)[C@H](CC(C)C)NC(=O)[C@H]([C@@H](C)CC)NC(=O)[C@](C)(NC(=O)[C@H](C)NC(C)=O)CCCCCCC=CCOC(=O)N2CC[C@@](C(=O)N[C@@H](Cc3ccc(F)cc3)C(=O)N[C@H](C(=O)N[C@@H](Cc3c[nH]c4ccccc34)C(N)=O)C(C)C)(C2)NC1=O` (single isomer, unassigned) [FP0576c Isomer 1, Ac-A-R8-I-L-D-A-2pyr-I-MB-4FF-V-W-NH2] and `CC[C@H](C)[C@@H]1NC(=O)[C@H](Cc2ccccn2)NC(=O)[C@H](C)NC(=O)[C@H](CC(=O)O)NC(=O)[C@H](CC(C)C)NC(=O)[C@H]([C@@H](C)CC)NC(=O)[C@](C)(NC(=O)[C@H](C)NC(C)=O)CCCCCCC=CCOC(=O)N2CC[C@@](C(=O)N[C@@H](Cc3ccc(O)cc3)C(=O)N[C@H](C(=O)N[C@@H](Cc3c[nH]c4ccccc34)C(N)=O)C(C)C)(C2)NC1=O` (single isomer, unassigned) [FP0564c Isomer 2, Ac-A-R8-I-L-D-A-2pyr-I-MB-Y-V-W-NH2] cannot be ordered by EC50: > 5000 nM for the first, > 5000 nM for the second.

`CC[C@H](C)[C@@H]1NC(=O)[C@H](Cc2c[nH]cn2)NC(=O)[C@H](C)NC(=O)[C@H](CC(=O)O)NC(=O)[C@H](CC(C)C)NC(=O)[C@H]([C@@H](C)CC)NC(=O)[C@](C)(NC(=O)[C@H](C)NC(C)=O)CCCCCCC=CCOC(=O)N2CC[C@@](C(=O)N[C@@H](CCCCNC)C(=O)N[C@H](C(=O)N[C@@H](Cc3c[nH]c4ccccc34)C(N)=O)C(C)C)(C2)NC1=O` [FP0636c, Ac-A-R8-I-L-D-A-H-I-MB-lmeK-V-W-NH2] and `CC[C@H](C)[C@@H]1NC(=O)[C@H](Cc2c[nH]cn2)NC(=O)[C@H](C)NC(=O)[C@H](CC(=O)O)NC(=O)[C@H](C)NC(=O)[C@H]([C@@H](C)CC)NC(=O)[C@](C)(NC(=O)[C@H](C)NC(C)=O)CCCCCCC=CCOC(=O)N2CC[C@@](C(=O)N[C@@H](CCCNC(=N)N)C(=O)N[C@H](C(=O)N[C@@H](Cc3c[nH]c4ccccc34)C(N)=O)C(C)C)(C2)NC1=O` [FP0406c, Ac-A-R8-I-A-D-A-H-I-MB-R-V-W-NH2] fall in the same range of EC50: 100 to 500 nM for the first, 100 to 500 nM for the second.

First: CC[C@H](C)[C@@H]1NC(=O)[C@]2(NC(=O)[C@H](CCC(N)=O)NC(=O)[C@@H]3CCCN3C(C)=O)CCN(CC=CCCC[C@@](C)(C(=O)N[C@@H](Cc3c[nH]cn3)C(=O)N[C@H](C(=O)N[C@@H](CCCNC(=N)N)C(=O)N[C@@H](CCCNC(=N)N)C(=O)N[C@H](C(=O)N[C@@H](Cc3c[nH]c4ccccc34)C(=O)N[C@@H](CCCNC(=N)N)C(N)=O)C(C)C)C(C)C)NC(=O)[C@H](CC(=O)O)NC(=O)[C@H](CC(C)C)NC1=O)C2 (single isomer, unassigned) [FP0751a, Ac-P-Q-MB-I-L-D-S5-H-V-R-R-V-W-R-NH2]
Second: CC[C@H](C)[C@@H]1NC(=O)[C@@]2(NC(=O)[C@H](CCC(N)=O)NC(=O)[C@@H]3CCCN3C(C)=O)CCN(C2)C(=O)OCC=CCCCC[C@](C)(C(=O)N[C@@H](Cc2c[nH]cn2)C(=O)N[C@H](C(=O)N[C@@H](CCCNC(=N)N)C(=O)N[C@@H](CCCNC(=N)N)C(=O)N[C@H](C(=O)N[C@@H](Cc2c[nH]c3ccccc23)C(=O)N[C@@H](CCCNC(=N)N)C(N)=O)C(C)C)C(C)C)NC(=O)[C@H](CC(=O)O)NC(=O)[C@H](CC(C)C)NC1=O (single isomer, unassigned) [FP0745c, Ac-P-Q-MC-I-L-D-R6-H-V-R-R-V-W-R-NH2]
The EC50 of the first is higher: > 5000 nM for the first, 100 to 500 nM for the second.

First: CC[C@H](C)[C@@H]1NC(=O)[C@H](Cc2ccccn2)NC(=O)[C@H](C)NC(=O)[C@H](CC(=O)O)NC(=O)[C@H](CC(C)C)NC(=O)[C@H]([C@@H](C)CC)NC(=O)[C@](C)(NC(=O)[C@H](C)NC(C)=O)CCCCCCC=CCOC(=O)N2CC[C@@](C(=O)N[C@@H](Cc3ccco3)C(=O)N[C@H](C(=O)N[C@@H](Cc3c[nH]c4ccccc34)C(N)=O)C(C)C)(C2)NC1=O (single isomer, unassigned) [FP0569c Isomer 1, Ac-A-R8-I-L-D-A-2pyr-I-MB-fur-V-W-NH2]
Second: CC[C@H](C)[C@@H]1NC(=O)C2(NC(=O)[C@H](CCC(N)=O)NC(=O)[C@@H]3CCCN3C(C)=O)CN(C2)C(=O)OCC=CCCCCC[C@@](C)(C(=O)N[C@@H](Cc2c[nH]cn2)C(=O)N[C@H](C(=O)N[C@@H](CCCNC(=N)N)C(=O)N[C@@H](CCCNC(=N)N)C(=O)N[C@H](C(=O)N[C@@H](Cc2c[nH]c3ccccc23)C(=O)N[C@@H](CCCNC(=N)N)C(N)=O)C(C)C)C(C)C)NC(=O)[C@H](CC(=O)O)NC(=O)[C@H](CC(C)C)NC1=O (single isomer, unassigned) [FP0728c, Ac-P-Q-MA-I-L-D-S7-H-V-R-R-V-W-R-NH2]
The EC50 of the first is higher: > 5000 nM for the first, 500 to 5000 nM for the second. The second is the more potent here.

same assay, conditions: competition with FITC labeled Axin-site probe, 15 nM full-length beta-catenin; read-out: FP EC50

Compared with `CC[C@H](C)[C@@H]1NC(=O)[C@@](C)(NC(=O)[C@H](CCC(N)=O)NC(=O)[C@@H]2CCCN2C(C)=O)CCCC=CCOC(=O)N2CC(C(=O)N[C@@H](Cc3c[nH]cn3)C(=O)N[C@H](C(=O)N[C@@H](CCCNC(=N)N)C(=O)N[C@@H](CCCNC(=N)N)C(=O)N[C@H](C(=O)N[C@@H](Cc3c[nH]c4ccccc34)C(=O)N[C@@H](CCCNC(=N)N)C(N)=O)C(C)C)C(C)C)(C2)NC(=O)[C@H](CC(=O)O)NC(=O)[C@H](CC(C)C)NC1=O` (single isomer, unassigned) [FP-0734c, Ac-P-Q-S5-I-L-D-Az-H-V-R-R-V-W-R-NH2], `CC[C@H](C)[C@@H]1NC(=O)C2(NC(=O)[C@H](CCC(N)=O)NC(=O)[C@@H]3CCCN3C(C)=O)CN(CC=CCCCC[C@](C)(C(=O)N[C@@H](Cc3c[nH]cn3)C(=O)N[C@H](C(=O)N[C@@H](CCCNC(=N)N)C(=O)N[C@@H](CCCNC(=N)N)C(=O)N[C@H](C(=O)N[C@@H](Cc3c[nH]c4ccccc34)C(=O)N[C@@H](CCCNC(=N)N)C(N)=O)C(C)C)C(C)C)NC(=O)[C@H](CC(=O)O)NC(=O)[C@H](CC(C)C)NC1=O)C2` (single isomer, unassigned) [FP-0725, Ac-P-Q-Az-I-L-D-R6-H-V-R-R-V-W-R-NH2] is lower in EC50: > 5000 nM for the first, 580 nM for the second.

With `CC[C@H](C)[C@@H]1NC(=O)[C@]2(NC(=O)[C@H](CCC(N)=O)NC(=O)[C@@H]3CCCN3C(C)=O)CCN(CC=CCCC[C@@](C)(C(=O)N[C@@H](Cc3c[nH]cn3)C(=O)N[C@H](C(=O)N[C@@H](CCCNC(=N)N)C(=O)N[C@@H](CCCNC(=N)N)C(=O)N[C@H](C(=O)N[C@@H](Cc3c[nH]c4ccccc34)C(=O)N[C@@H](CCCNC(=N)N)C(N)=O)C(C)C)C(C)C)NC(=O)[C@H](CC(=O)O)NC(=O)[C@H](CC(C)C)NC1=O)C2` (single isomer, unassigned) [FP-0751, Ac-P-Q-PS-I-L-D-S5-H-V-R-R-V-W-R-NH2] the EC50 was > 5000 nM.
